According to US6583143B2, “CRF receptor antagonists and methods relating thereto” (Neurocrine Biosciences, Inc., priority 2000, dated 2003):

Target: T1, human CRF receptors (Homo sapiens, UniProt P34998)
T1 construct: expressed in transfected cells; membrane suspension of stably transfected cells
T1 sequence (P34998 24-415): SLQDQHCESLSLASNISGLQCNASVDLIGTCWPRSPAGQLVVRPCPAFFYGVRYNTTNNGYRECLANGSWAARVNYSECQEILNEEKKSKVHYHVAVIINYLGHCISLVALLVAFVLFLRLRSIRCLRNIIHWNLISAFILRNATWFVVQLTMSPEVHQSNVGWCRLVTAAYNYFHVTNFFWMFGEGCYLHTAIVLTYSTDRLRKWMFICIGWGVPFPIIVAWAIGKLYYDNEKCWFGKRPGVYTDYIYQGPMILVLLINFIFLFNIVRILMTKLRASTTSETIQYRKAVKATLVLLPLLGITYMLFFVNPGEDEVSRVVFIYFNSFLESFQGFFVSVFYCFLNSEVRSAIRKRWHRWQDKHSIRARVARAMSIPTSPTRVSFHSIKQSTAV
Test: CRF receptor radioligand binding assay (displacement of [125I]tyrosine-ovine CRF)
Settings: CRF receptor binding affinity, assayed by the methods of Example 9
Source text: The effectiveness of a compound as a CRF receptor antagonist may be determined by various assay methods. Suitable CRF antagonists of this invention are capable of inhibiting the specific binding of CRF to its receptor and antagonizing activities associated with CRF. A compound of structure (I) may be assessed for activity as a CRF antagonist by one or more generally accepted assays for this purpose, including (but not limited to) the assays disclosed by DeSouza et al. (J. Neuroscience 7:88, 1987) and Battaglia et al. (Synapse 1:572, 1987). […] CRF receptor affinity may be determined by binding studies that measure the ability of a compound to inhibit the binding of a radiolabeled CRF (e.g., [^125I]tyrosine-CRF) to its receptor (e.g., receptors prepared from rat cerebral cortex membranes). […]
The compounds of this invention may be evaluated for binding activity to the CRF receptor by a standard radioligand binding assay as generally described by DeSouza et al. (J. Neurosci. 7:88-100, 1987). […]
More specifically, the binding assay is performed in 1.5 ml Eppendorf tubes using approximately 1×10^6 cells per tube stably transfected with human CRF receptors. […] Following two washes of the pellets, the tubes are cut just above the pellet and monitored in a gamma counter for radioactivity at approximately 80% efficiency. […]

CCCC(CCC)N1N=C(C)n2nc(-c3ccc(OC)cc3C)c3nc(C)cc1c32 [Compound 8-3] gave a Ki of under 100 nM.
